This is an account of results in paper PMC9598282 (Antibiotics, 2022).

Common to all, as to experiment: microbe, parasite or virus in culture
Experiment [1] has as its system A. baumannii ATCC 17978. It counts as cell-based, Acinetobacter baumannii. The conditions noted are these: for MIC: Acinetobacter baumannii, ATCC17978, 18 h, read-out: MIC alone; for MIC / MIC alone: agent alone, one value per checkerboard plate. How it is done:
(§1) The adjuvant properties of the guanidinylated polymyxins were evaluated using the checkerboard assay as previously described. The bacterial solution was prepared as described in the antimicrobial susceptibility assay. The antibiotic of interest and the adjuvant were serially diluted two-fold along the x- and y-axis on a 96-well plate, respectively, resulting in varying concentrations of both agents in each well. Equal volumes of bacterial solution were added to the designated wells. The well consisting of bacterial solution served as the positive control, while the wells containing only media served as the negative control. The plate was then incubated at 37 °C for 18 h. After incubation, an Emax Plus microplate reader (Molecular Devices, Union City, CA, USA) was used to measure the OD at a wavelength of 590 nm to confirm the turbidity. The fractional inhibitory concentration (FIC) index was then determined to establish the relationship between the antibiotic and adjuvant. The FIC index corresponds to the sum of the FICs of the antibiotic and adjuvant. The FIC of each agent is calculated by dividing its MIC when it is used in combination by its MIC when used alone. FIC indices ≤0.5, 0.5 < x ≤ 4 and >4 indicate synergy, additivity and antagonism, respectively.

The subject of experiment [2] is P. aeruginosa PAO1. It counts as cell-based, Pseudomonas aeruginosa. The conditions noted are these: for MIC: Pseudomonas aeruginosa, PAO1, 18 h, read-out: MIC alone. How it is done:
as §1

Experiment [3] relates to E. coli ATCC 25922. The class given is cell-based, Escherichia coli. Also noted: key to FIC index antibiotic + GCol / FIC index antibiotic + GPMB: sum of FICs; ≤0.5 synergy, 0.5–4 additivity, >4 antagonism. The conditions noted are these: for MIC: Escherichia coli, ATCC25922, 18 h, read-out: MIC alone. Here is the method: as §1
Where [4] appears, read: agent alone, one value per checkerboard plate.

Consider `O=C(N[C@H](CO)[C@H](O)c1ccc([N+](=O)[O-])cc1)C(Cl)Cl` [Chloramphenicol], for which the “Absolute MIC of antibiotic at 2 μg/mL GCol” value was 64 µg/mL in experiment [1] and 0.5 µg/mL in experiment [3]. Also, the “Absolute MIC of antibiotic at 2 μg/mL GPMB” value in experiment [1] amounted to 32 µg/mL; in experiment [3], 0.5 µg/mL. The “FIC index antibiotic + GPMB” value is reported as 0.563 in experiment [1] and 0.5 in experiment [3]. The figures for the MIC in experiment [1], in experiment [2] (setting [4]) and in experiment [3] (setting [4]) were 64 µg/mL, 32 µg/mL and 2 µg/mL, respectively. Moreover, the Fold-potentiation of antibiotic in experiment [1] (at 2 μg/mL GCol) came to 1; in experiment [1] (at 2 μg/mL GPMB) it was 2; in experiment [2] (at 4 μg/mL GCol), 8; in experiment [2] (at 4 μg/mL GPMB), 16; in experiment [3] (at 2 μg/mL GCol), 4; in experiment [3] (at 2 μg/mL GPMB) it was 4. The “Absolute MIC of antibiotic at 4 μg/mL GCol” value in experiment [2] stood at 4 µg/mL. Besides, the “Absolute MIC of antibiotic at 4 μg/mL GPMB” value in experiment [2] amounted to 2 µg/mL. The “FIC index antibiotic + GCol” value in experiment [3] is on record as 0.375.
In the case of `CCC[C@@H]1C[C@@H](C(=O)N[C@@H]([C@H]2O[C@H](SC)[C@H](O)[C@@H](O)[C@H]2O)[C@H](C)Cl)N(C)C1` [Clindamycin], the “Absolute MIC of antibiotic at 2 μg/mL GCol” value in experiment [1] was 512 µg/mL; in experiment [3], 4 µg/mL. The results for the “Absolute MIC of antibiotic at 2 μg/mL GPMB” value in experiment [1] and in experiment [3] were 64 µg/mL and 8 µg/mL, respectively. For the same compound, the “FIC index antibiotic + GPMB” value in experiment [1] was found to be 0.375; in experiment [2] it was 0.254; in experiment [3], 0.313. Moreover, the MIC was 1020 µg/mL in experiment [1], 1020 µg/mL in experiment [2] (setting [4]) and 64 µg/mL in experiment [3] (setting [4]). Besides, the Fold-potentiation of antibiotic turned out to be 2 in experiment [1] (at 2 μg/mL GCol); 16 in experiment [1] (at 2 μg/mL GPMB); 128 in experiment [2] (at 4 μg/mL GCol); 256 in experiment [2] (at 4 μg/mL GPMB); 16 in experiment [3] (at 2 μg/mL GCol); 16 in experiment [3] (at 2 μg/mL GPMB). For the same compound, in experiment [2], the “Absolute MIC of antibiotic at 4 μg/mL GCol” value turned out to be 8 µg/mL. The “Absolute MIC of antibiotic at 4 μg/mL GPMB” value in experiment [2] amounted to 8 µg/mL. The MIC alone worked out at 2048 µg/mL in experiment [2] (setting [4]) and 128 µg/mL in experiment [3] (setting [4]). The “FIC index antibiotic + GCol” value in experiment [3] worked out at 0.125.
On to `C[C@H]1c2cccc(O)c2C(=O)C2=C(O)[C@]3(O)C(=O)C(C(N)=O)=C(O)[C@@H](N(C)C)[C@@H]3[C@@H](O)[C@@H]21` [Doxycycline], for which, in experiment [1], the “Absolute MIC of antibiotic at 2 μg/mL GCol” value is 0.125 µg/mL, the “Absolute MIC of antibiotic at 2 μg/mL GPMB” value was found to be 0.063 µg/mL, the MIC was 0.125 µg/mL and the MIC alone is 0.063 µg/mL. In addition, in experiment [2], the “Absolute MIC of antibiotic at 4 μg/mL GCol” value turned out to be 1 µg/mL and the “Absolute MIC of antibiotic at 4 μg/mL GPMB” value was 0.5 µg/mL. Besides, the MIC in experiment [2] (setting [4]) was determined as 8 µg/mL.
Regarding `C[C@H]1COc2c(N3CCN(C)CC3)c(F)cc3c(=O)c(C(=O)O)cn1c23` [Levofloxacin], the “Absolute MIC of antibiotic at 2 μg/mL GCol” value in experiment [1] stood at 0.125 µg/mL; in experiment [3] it was 0.008 µg/mL. For the same compound, the “Absolute MIC of antibiotic at 2 μg/mL GPMB” value in experiment [1] was 0.063 µg/mL; in experiment [3], 0.032 µg/mL. Besides, the “FIC index antibiotic + GPMB” value came out at 1 in experiment [1], 0.375 in experiment [2] and 0.563 in experiment [3]. Also, the MIC in experiment [1] is 0.125 µg/mL; in experiment [2] (setting [4]), 0.5 µg/mL. Moreover, the MIC alone in experiment [1] was found to be 0.063 µg/mL. The Fold-potentiation of antibiotic amounted to 1 in experiment [1] (at 2 μg/mL GCol); 1 in experiment [1] (at 2 μg/mL GPMB); 8 in experiment [2] (at 4 μg/mL GCol); 8 in experiment [2] (at 4 μg/mL GPMB); 2 in experiment [3] (at 2 μg/mL GCol); 2 in experiment [3] (at 2 μg/mL GPMB). In addition, the “Absolute MIC of antibiotic at 4 μg/mL GCol” value in experiment [2] amounted to 0.0625 µg/mL. For the same compound, the “Absolute MIC of antibiotic at 4 μg/mL GPMB” value in experiment [2] was found to be 0.03125 µg/mL. Besides, in experiment [3], the “FIC index antibiotic + GCol” value worked out at 0.531.
As to `CC(=O)NC[C@H]1CN(c2ccc(N3CCOCC3)c(F)c2)C(=O)O1` [Linezolid], the “Absolute MIC of antibiotic at 2 μg/mL GCol” value in experiment [1] worked out at 128 µg/mL; in experiment [3], 16 µg/mL. The “Absolute MIC of antibiotic at 2 μg/mL GPMB” value in experiment [1] was determined as 64 µg/mL; in experiment [3], 8 µg/mL. Further, the figures for the “FIC index antibiotic + GPMB” value in experiment [1] and in experiment [3] were 0.375 and 0.25, respectively. Further, the MIC was determined as 256 µg/mL in experiment [1], 1020 µg/mL in experiment [2] (setting [4]) and 128 µg/mL in experiment [3] (setting [4]). The Fold-potentiation of antibiotic in experiment [1] (at 2 μg/mL GCol) was determined as 2; in experiment [1] (at 2 μg/mL GPMB) it was 4; in experiment [2] (at 4 μg/mL GCol), 8; in experiment [2] (at 4 μg/mL GPMB), 32; in experiment [3] (at 2 μg/mL GCol), 8; in experiment [3] (at 2 μg/mL GPMB), 16. Also, the “Absolute MIC of antibiotic at 4 μg/mL GCol” value in experiment [2] came out at 128 µg/mL. In addition, the “Absolute MIC of antibiotic at 4 μg/mL GPMB” value in experiment [2] was determined as 32 µg/mL. Further, in experiment [3], the “FIC index antibiotic + GCol” value came to 0.25.
As for `CN(C)c1ccc(O)c2c1C[C@H]1C[C@H]3[C@H](N(C)C)C(O)=C(C(N)=O)C(=O)[C@@]3(O)C(O)=C1C2=O` [Minocycline], the “Absolute MIC of antibiotic at 2 μg/mL GCol” value in experiment [1] worked out at 0.125 µg/mL; in experiment [3], 0.25 µg/mL. The “Absolute MIC of antibiotic at 2 μg/mL GPMB” value in experiment [1] amounted to 0.063 µg/mL; in experiment [3] it was 0.125 µg/mL. The results for the “FIC index antibiotic + GPMB” value in experiment [1] and in experiment [3] were 0.5 and 0.25, respectively. Besides, the MIC stood at 0.125 µg/mL in experiment [1], 16 µg/mL in experiment [2] (setting [4]) and 1 µg/mL in experiment [3] (setting [4]). Further, the MIC alone in experiment [1] was 0.25 µg/mL. Moreover, the Fold-potentiation of antibiotic in experiment [1] (at 2 μg/mL GCol) stood at 1; in experiment [1] (at 2 μg/mL GPMB), 4; in experiment [2] (at 4 μg/mL GCol), 32; in experiment [2] (at 4 μg/mL GPMB) it was 32; in experiment [3] (at 2 μg/mL GCol) it was 4; in experiment [3] (at 2 μg/mL GPMB) it was 8. Besides, the “Absolute MIC of antibiotic at 4 μg/mL GCol” value in experiment [2] worked out at 0.5 µg/mL. Besides, in experiment [2], the “Absolute MIC of antibiotic at 4 μg/mL GPMB” value was 0.5 µg/mL. In addition, the “FIC index antibiotic + GCol” value in experiment [3] is 0.281.
Take `COc1c(N2C[C@@H]3CCCN[C@@H]3C2)c(F)cc2c(=O)c(C(=O)O)cn(C3CC3)c12` [Moxifloxacin]: the figures for the “Absolute MIC of antibiotic at 2 μg/mL GCol” value in experiment [1] and in experiment [3] were 0.063 µg/mL and 0.008 µg/mL, respectively. In addition, the results for the “Absolute MIC of antibiotic at 2 μg/mL GPMB” value in experiment [1] and in experiment [3] were 0.063 µg/mL and 0.004 µg/mL, respectively. Further, the values for the MIC in experiment [1], in experiment [2] (setting [4]) and in experiment [3] (setting [4]) were 0.063 µg/mL, 1 µg/mL and 0.016 µg/mL, respectively.
